Structures are written as SMILES.

T1 sequence (P13569 with tags, fused parts or gaps DEL508-508): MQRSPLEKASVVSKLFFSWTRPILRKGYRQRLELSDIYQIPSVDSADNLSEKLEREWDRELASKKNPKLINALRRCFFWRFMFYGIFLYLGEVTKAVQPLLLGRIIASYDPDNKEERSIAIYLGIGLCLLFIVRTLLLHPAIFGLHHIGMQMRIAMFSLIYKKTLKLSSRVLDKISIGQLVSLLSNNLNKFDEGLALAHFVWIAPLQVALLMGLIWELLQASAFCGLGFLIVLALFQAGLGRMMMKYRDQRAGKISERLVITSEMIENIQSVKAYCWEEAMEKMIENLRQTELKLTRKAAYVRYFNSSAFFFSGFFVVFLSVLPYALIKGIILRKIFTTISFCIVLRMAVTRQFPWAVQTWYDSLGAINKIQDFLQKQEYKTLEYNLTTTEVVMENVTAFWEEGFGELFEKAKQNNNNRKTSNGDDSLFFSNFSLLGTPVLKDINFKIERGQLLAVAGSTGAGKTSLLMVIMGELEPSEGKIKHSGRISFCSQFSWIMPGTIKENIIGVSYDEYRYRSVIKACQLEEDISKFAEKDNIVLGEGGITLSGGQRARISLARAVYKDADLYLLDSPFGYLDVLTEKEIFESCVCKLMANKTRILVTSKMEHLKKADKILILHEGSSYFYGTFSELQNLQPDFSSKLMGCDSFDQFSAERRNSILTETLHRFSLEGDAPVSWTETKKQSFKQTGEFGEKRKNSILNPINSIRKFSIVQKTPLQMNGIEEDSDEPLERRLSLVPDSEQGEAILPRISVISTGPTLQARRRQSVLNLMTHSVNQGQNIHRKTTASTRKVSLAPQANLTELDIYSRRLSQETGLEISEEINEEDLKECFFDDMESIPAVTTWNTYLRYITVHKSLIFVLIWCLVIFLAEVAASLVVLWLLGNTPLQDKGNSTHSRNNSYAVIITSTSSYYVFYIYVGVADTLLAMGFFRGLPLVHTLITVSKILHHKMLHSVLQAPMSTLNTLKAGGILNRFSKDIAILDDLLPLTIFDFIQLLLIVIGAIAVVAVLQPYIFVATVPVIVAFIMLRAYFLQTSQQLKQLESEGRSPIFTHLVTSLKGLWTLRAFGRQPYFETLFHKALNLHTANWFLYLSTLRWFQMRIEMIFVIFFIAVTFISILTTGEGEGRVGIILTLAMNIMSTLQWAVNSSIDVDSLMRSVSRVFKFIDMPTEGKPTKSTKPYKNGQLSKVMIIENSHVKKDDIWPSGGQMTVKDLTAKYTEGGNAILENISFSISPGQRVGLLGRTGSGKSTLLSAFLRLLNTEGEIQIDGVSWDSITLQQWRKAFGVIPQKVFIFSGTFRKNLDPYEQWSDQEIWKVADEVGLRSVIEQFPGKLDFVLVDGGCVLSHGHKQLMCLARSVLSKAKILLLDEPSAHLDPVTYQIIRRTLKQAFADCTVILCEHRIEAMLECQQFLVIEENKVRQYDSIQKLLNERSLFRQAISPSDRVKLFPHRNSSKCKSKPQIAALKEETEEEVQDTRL

This assay has as its target T1, F508del (Homo sapiens, UniProt P13569, DEL508-508).
T1 construct: expressed in transfected cells
Description: Protocol 1: membrane potential optical assay (FLIPR III, voltage sensing dye), identification of potentiator compounds. Conditions: Table 3, compounds of Table 1. It is filed as cell-based. An outline of the steps: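 Gating potentiation is read as a membrane-potential fluorescence change (FLIPR III, voltage-sensing dye) after one forskolin addition under a Cl− gradient, with gluconate replacing chloride, pH 7.4. Cells are F508del-expressing NIH3T3 mouse fibroblasts held 24 h at 27 °C and exposed to compound before dye loading.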
As to `CC1CCC(Oc2cccc(S(=O)(=O)NC(=O)c3cccnc3N3CC(C)CC3(C)C)n2)C1` (stereo not drawn) [Compound 1884, N—[[6-(3-methylcyclopentoxy)-2-pyridyl]sulfonyl]-2-(2,2,4-trimethylpyrrolidin-1-yl)pyridine-3-carboxamide], the EC30 result was “+++ (“+++” means <3 uM)”.
In the case of `CC(C)Oc1ccc(-c2ccc(C(=O)NS(=O)(=O)c3cccc(N)n3)c(N3CC[C@H](C)C3)n2)cn1` [Compound 1081, N-[(6-amino-2-pyridyl)sulfonyl]-6-(6-isopropoxy-3-pyridyl)-2-[(3S)-3-methylpyrrolidin-1-yl]pyridine-3-carboxamide], the EC30 result was “++ (“++” means between 3 uM and 10 uM)”.
The same measure for `Cc1cccc(C)c1Cn1nc(-c2ccc(OC(C)C)cc2)cc1C(=O)NS(=O)(=O)c1ccccc1` [Compound 1478, N-(benzenesulfonyl)-2-[(2,6-dimethylphenyl)methyl]-5-(4-isopropoxyphenyl)pyrazole-3-carboxamide]: “+++ (“+++” means <3 uM)”; for `C[C@@H]1CN(c2nc(-c3ccc(OCC(C)(C)C)nc3)ccc2C(=O)NS(=O)(=O)c2cccc(N)n2)C(C)(C)C1` [Compound 1504, N-[(6-amino-2-pyridyl)sulfonyl]-6-[6-(2,2-dimethylpropoxy)-3-pyridyl]-2-[(4S)-2,2,4-trimethylpyrrolidin-1-yl]pyridine-3-carboxamide]: “+++ (“+++” means <3 uM)”.
For `CC(C)COc1cc(-c2ccc(C(=O)NS(=O)(=O)c3ccn[nH]3)c(N3[C@H](C)CC[C@@H]3C)n2)ccc1Cl` [Compound 1234, 6-(4-chloro-3-isobutoxy-phenyl)-2-[(2S,5R)-2,5-dimethylpyrrolidin-1-yl]-N-(1H-pyrazol-5-ylsulfonyl)pyridine-3-carboxamide], the EC30 entry is “+++ (“+++” means <3 uM)”.
For the compound `Cc1cc(C)c(Oc2nc(C)ccc2C(=O)NS(=O)(=O)c2cccc(N)n2)c(C)c1` [Compound 1137, N-[(6-amino-2-pyridyl)sulfonyl]-6-methyl-2-(2,4,6-trimethylphenoxy)pyridine-3-carboxamide], the EC30 result is “++ (“++” means between 3 uM and 10 uM)”.
`CC(C)COc1cc(F)cc(-c2ccc(C(=O)NS(=O)(=O)c3ccccn3)c(N3CCC(C)(C)CC3)n2)c1` [Compound 1069, 2-(4,4-dimethyl-1-piperidyl)-6-(3-fluoro-5-isobutoxy-phenyl)-N-(2-pyridylsulfonyl)pyridine-3-carboxamide]: the EC30 result was “+++ (“+++” means <3 uM)”.
Consider `COc1cccc(-c2ccc(C(=O)NS(=O)(=O)c3cccc(N)n3)c(N3[C@H](C)CC[C@@H]3C)n2)n1` [Compound 1141, N-[(6-amino-2-pyridyl)sulfonyl]-2-[(2S,5R)-2,5-dimethylpyrrolidin-1-yl]-6-(6-methoxy-2-pyridyl)pyridine-3-carboxamide], for which the EC30 result is “++ (“++” means between 3 uM and 10 uM)”.
The same measure for `C[C@@H]1CN(c2nc(Cl)ccc2C(=O)NS(=O)(=O)c2cccc(N)n2)C(C)(C)C1` [Compound 852, N-[(6-amino-2-pyridyl)sulfonyl]-6-chloro-2-[(4S)-2,2,4-trimethylpyrrolidin-1-yl]pyridine-3-carboxamide]: “++ (“++” means between 3 uM and 10 uM)”; for `C[C@@H]1CN(c2nc(C3CC3)ccc2C(=O)NS(=O)(=O)c2cccc(N)n2)C(C)(C)C1` [Compound 1627, N-[(6-amino-2-pyridyl)sulfonyl]-6-cyclopropyl-2-[(4S)-2,2,4-trimethylpyrrolidin-1-yl]pyridine-3-carboxamide]: “+++ (“+++” means <3 uM)”; for `CCOc1cccc(-c2ccc(C(=O)NS(=O)(=O)c3ccc[nH]c3=O)c(N3C[C@@H](C)CC3(C)C)n2)c1F` [Compound 1802, 6-(3-ethoxy-2-fluoro-phenyl)-N-[(2-oxo-1H-pyridin-3-yl)sulfonyl]-2-[(4S)-2,2,4-trimethylpyrrolidin-1-yl]pyridine-3-carboxamide]: “+++ (“+++” means <3 uM)”.
Regarding `COc1cc(OC)cc(-c2ccc(C(=O)NS(=O)(=O)c3cccnc3N)c(N3C[C@@H](C)CC3(C)C)n2)c1` [Compound 1825, N-[(2-amino-3-pyridyl)sulfonyl]-6-(3,5-dimethoxyphenyl)-2-[(4S)-2,2,4-trimethylpyrrolidin-1-yl]pyridine-3-carboxamide], the EC30 result was “+++ (“+++” means <3 uM)”.
For the compound `Cc1cc(C)c(Oc2nc(C3CCCC3)ccc2C(=O)NS(=O)(=O)c2cccc(N)n2)c(C)c1` [Compound 1280, N-[(6-amino-2-pyridyl)sulfonyl]-6-cyclopentyl-2-(2,4,6-trimethylphenoxy)pyridine-3-carboxamide], the EC30 entry is “+++ (“+++” means <3 uM)”.
Regarding `COc1cc(OC)cc(-c2ccc(C(=O)NS(=O)(=O)c3cccc(N)n3)c(Oc3c(C)cc(C)cc3C)n2)c1` [Compound 828, N-[(6-amino-2-pyridyl)sulfonyl]-6-(3,5-dimethoxyphenyl)-2-(2,4,6-trimethylphenoxy)pyridine-3-carboxamide], the EC30 result was “+++ (“+++” means <3 uM)”.
With `CC(C)COc1cc(F)cc(-c2ccc(C(=O)NS(=O)(=O)c3cccc(N)n3)c(C3=CC(C)(C)CC3(C)C)n2)c1` [Compound 1502, N-[(6-amino-2-pyridyl)sulfonyl]-6-(3-fluoro-5-isobutoxy-phenyl)-2-(3,3,5,5-tetramethylcyclopenten-1-yl)pyridine-3-carboxamide] the entry was “+++ (“+++” means <3 uM)”.

(Values after patent US10758534B2 (Vertex Pharmaceuticals Incorporated, priority 2014, dated 2020).)
